pEC50: −log10 of the molar value.
Target: 229E Mpro (Human coronavirus 229E (HCoV-229E), UniProt P0C6X1)
Assay: 229E Mpro activity
Assay type: biochemical
Settings: read-out: 229E Mpro EC50
Description: Compounds are assayed using standard methods to assess compound activity and IC50. […] The assay buffer contains 20 mM of Tris-HCl (pH 7.3), 100 mM of NaCl, 1 mM of EDTA, 5mM of TCEP and 0.1% BSA.

Sequence of 229E Mpro (P0C6X1 2966-3267 limits assumed): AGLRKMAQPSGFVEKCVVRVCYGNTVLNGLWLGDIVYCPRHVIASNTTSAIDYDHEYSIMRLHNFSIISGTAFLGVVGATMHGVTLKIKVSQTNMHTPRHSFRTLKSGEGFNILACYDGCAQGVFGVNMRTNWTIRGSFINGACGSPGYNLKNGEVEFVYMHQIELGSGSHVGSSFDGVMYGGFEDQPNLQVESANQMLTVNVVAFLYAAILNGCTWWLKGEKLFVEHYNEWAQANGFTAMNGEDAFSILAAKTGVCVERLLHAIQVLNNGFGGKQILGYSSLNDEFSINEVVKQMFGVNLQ

COc1cccc2[nH]c(C(=O)N3CCC4(CC4)C[C@H]3C(=O)N[C@H](C#N)C[C@@H]3CCNC3=O)cc12 [Compound 183, (S)-N-((S)-1-cyano-2-((S)-2-oxopyrrolidin-3-yl)ethyl)-6-(4-methoxy-1H-indole-2-carbonyl)-6-azaspiro[2.5]octane-5-carboxamide]
pEC50: 5.00 to 5.70

N#C[C@H](C[C@@H]1CCNC1=O)NC(=O)[C@@H]1C[C@@H](c2ccccc2)CN1C(=O)/C=C/c1ccc(Cl)cc1F [Compound 209, (2S,4S)-1-((E)-3-(4-chloro-2-fluorophenyl)acryloyl)-N-((S)-1-cyano-2-((S)-2-oxopyrrolidin-3-yl)ethyl)-4-phenylpyrrolidine-2-carboxamide]
pEC50: 5.00 to 5.70

N#C[C@H](C[C@@H]1CCNC1=O)NC(=O)[C@@H]1CCCNN1C(=O)/C=C/c1ccc(Cl)cc1F [Compound 213, (3S)-2-[(E)-3-(4-chloro-2-fluoro-phenyl)prop-2-enoyl]-N-[(1S)-1-cyano-2-[(3S)-2-oxopyrrolidin-3-yl]ethyl]hexahydropyridazine-3-carboxamide]
pEC50: < 4.52

COc1cccc2[nH]c(C(=O)N[C@@H](CC(C)C)C(=O)N[C@H](C#N)Cc3cncn3C)cc12 [Compound 225]
pEC50: < 4.52

COc1cccc2[nH]c(C(=O)N[C@@H](CC(C)C)C(=O)N[C@H](C#N)Cc3cn(C)cn3)cc12 [Compound 227, N-[(1S)-1-[[(1S)-1-cyano-2-(1-methylimidazol-4-yl)ethyl]carbamoyl]-3-methyl-butyl]-4-methoxy-1H-indole-2-carboxamide]
pEC50: < 4.52

N#C[C@H](C[C@@H]1CCNC1=O)NC(=O)[C@H](CC1CC1)N1CCc2cc[nH]c2C1=O [Compound 267, (2S)-N-[(1S)-1-cyano-2-[(3S)-2-oxopyrrolidin-3-yl]ethyl]-3-cyclopropyl-2-(7-oxo-4,5-dihydro-1H-pyrrolo[2,3-c]pyridin-6-yl)propanamide]
pEC50: > 5.70

N#C[C@H](C[C@@H]1CCNC1=O)NC(=O)[C@@H](CC1CC1)N1CCc2cc[nH]c2C1=O [Compound 267A, (2R)-N-[(1S)-1-cyano-2-[(3S)-2-oxopyrrolidin-3-yl]ethyl]-3-cyclopropyl-2-(7-oxo-4,5-dihydro-1H-pyrrolo[2,3-c]pyridin-6-yl)propanamide]
pEC50: < 4.52

N#C[C@H](C[C@@H]1CCNC1=O)NC(=O)[C@H](CC1CC1)n1ccc2[nH]cnc2c1=O [Compound 269, (2S)-N-[(1S)-1-cyano-2-[(3S)-2-oxopyrrolidin-3-yl]ethyl]-3-cyclopropyl-2-(4-oxo-3H-imidazo[4,5-c]pyridin-5-yl)propanamide]
pEC50: < 4.52

CN1CCCC[C@]12CCN([C@H](CC1CC1)C(=O)N[C@H](C#N)C[C@@H]1CCNC1=O)C2=O [Compound 273A, (2R)-N-[(1S)-1-cyano-2-[(3S)-2-oxopyrrolidin-3-yl]ethyl]-3-cyclopropyl-2-[(5R)-6-methyl-1-oxo-2,6-diazaspiro[4.5]decan-2-yl]propanamide]
pEC50: < 4.52

CN1CCCC[C@@]12CCN([C@H](CC1CC1)C(=O)N[C@H](C#N)C[C@@H]1CCNC1=O)C2=O [Compound 273B, (2R)-N-[(1S)-1-cyano-2-[(3S)-2-oxopyrrolidin-3-yl]ethyl]-3-cyclopropyl-2-[(5S)-6-methyl-1-oxo-2,6-diazaspiro[4.5]decan-2-yl]propanamide]
pEC50: < 4.52

CN1CCCC[C@]12CCN([C@@H](CC1CC1)C(=O)N[C@H](C#N)C[C@@H]1CCNC1=O)C2=O [Compound 273C, (2S)-N-[(1S)-1-cyano-2-[(3S)-2-oxopyrrolidin-3-yl]ethyl]-3-cyclopropyl-2-[(5R)-6-methyl-1-oxo-2,6-diazaspiro[4.5]decan-2-yl]propanamide]
pEC50: 5.00 to 5.70

COc1cccc2[nH]c(C(=O)N[C@@H](CC3CC3)C(=O)N[C@@]3(C#N)CCc4cccnc4C3)cc12 [Compound 279]
pEC50: < 4.52

COc1cccc2[nH]c(C(=O)N3C[C@H]4CCC[C@H]4[C@H]3C(=O)N[C@H](C#N)C[C@@H]3CCNC3=O)cc12 [Compound 305]
pEC50: > 5.70

COc1cccc2[nH]c(C(=O)N[C@@H](CC(C)C)C(=O)N[C@@H](C[C@@H]3CCNC3=O)C(C#N)Nc3ccccc3)cc12 (stereo partly drawn) [Compound 327, N-[(1S)-1-[[(1S)-2-anilino-2-cyano-1-[[(3S)-2-oxopyrrolidin-3-yl]methyl]ethyl]carbamoyl]-3-methyl-butyl]-4-methoxy-1H-indole-2-carboxamide]
pEC50: > 5.70

CCCN1C(=N)C([C@H](C[C@@H]2CCNC2=O)NC(=O)[C@H](CC(C)C)NC(=O)c2cc3c(OC)cccc3[nH]2)OC1=O (stereo partly drawn) [Compound 355, N-((2S)-1-(((1 S)-1-(4-imino-2-oxo-3-propyloxazolidin-5-yl)-2-((S)-2-oxopyrrolidin-3-yl)ethyl)amino)-4-methyl-1-oxopentan-2-yl)-4-methoxy-1H-indole-2-carboxamide]
pEC50: 5.00 to 5.70

COc1cccc2[nH]c(C(=O)N[C@@H](CC(C)C)C(=O)N[C@@H](C[C@@H]3CCNC3=O)C3OC(=O)N(C(C)C)C3=N)cc12 (stereo partly drawn) [Compound 357, N-((2S)-1-(((1S)-1-(4-imino-3-isopropyl-2-oxooxazolidin-5-yl)-2-((S)-2-oxopyrrolidin-3-yl)ethyl)amino)-4-methyl-1-oxopentan-2-yl)-4-methoxy-1H-indole-2-carboxamide]
pEC50: < 4.52

COc1cccc2[nH]c(C(=O)N[C@@H](CC(C)C)C(=O)N[C@@H](C[C@@H]3CCNC3=O)C3OC(=O)N(c4ccccc4)C3=N)cc12 (stereo partly drawn) [Compound 359, N-[(1S)-1-[[(1S)-1-(4-imino-2-oxo-3-phenyl-oxazolidin-5-yl)-2-[(3S)-2-oxopyrrolidin-3-yl]ethyl]carbamoyl]-3-methyl-butyl]-4-methoxy-1H-indole-2-carboxamide]
pEC50: 4.52 to 5.00

COc1cccc2[nH]c(C(=O)N3CC4(CCOCC4)C[C@H]3C(=O)N[C@H](C#N)C[C@@H]3CCNC3=O)cc12 [Compound 387, N-((S)-1-cyano-2-((S)-2-oxopyrrolidin-3-yl)ethyl)-2-(4-methoxy-1H-indole-2-carbonyl)-8-oxa-2-azaspiro[4.5]decane-3-carboxamide]
pEC50: < 4.52

CC[C@H]1CN(C(=O)c2cc3c(OC)cccc3[nH]2)[C@@H]1C(=O)N[C@H](C#N)C[C@@H]1CCNC1=O [Compound 391, (2S,3S)-N-((S)-1-cyano-2-((S)-2-oxopyrrolidin-3-yl)ethyl)-3-ethyl-1-(4-methoxy-1H-indole-2-carbonyl)azetidine-2-carboxamide]
pEC50: < 4.52

COc1cccc2[nH]c(C(=O)N3C[C@H](OC)C[C@H]3C(=O)N[C@H](C#N)C[C@@H]3CCNC3=O)cc12 [Compound 407]
pEC50: > 5.70

CCO[C@@H]1C[C@@H](C(=O)N[C@H](C#N)C[C@@H]2CCNC2=O)N(C(=O)c2cc3c(OC)cccc3[nH]2)C1 [Compound 409, (2S,4R)-N-[(1S)-1-cyano-2-[(3S)-2-oxopyrrolidin-3-yl]ethyl]-4-ethoxy-1-(4-methoxy-1H-indole-2-carbonyl)pyrrolidine-2-carboxamide]
pEC50: < 4.52

N#C[C@H](C[C@@H]1CCNC1=O)NC(=O)[C@@H]1CS[C@H]2CC[C@H](NC(=O)OCc3ccccc3)C(=O)N21 [Compound 457, Benzyl((3R,6S,8aS)-3-(((S)-1-cyano-2-((S)-2-oxopyrrolidin-3-yl)ethyl)carbamoyl)-5-oxohexahydro-2H-thiazolo[3,2-a]pyridin-6-yl)carbamate]
pEC50: < 4.52

Cc1cc(C(=O)N[C@H]2CC[C@@H]3SC[C@@H](C(=O)N[C@H](C#N)C[C@@H]4CCNC4=O)N3C2=O)no1 [Compound 459, N-((3R,6S,8aS)-3-(((S)-1-cyano-2-((S)-2-oxopyrrolidin-3-yl)ethyl)carbamoyl)-5-oxohexahydro-2H-thiazolo[3,2-a]pyridin-6-yl)-5-methylisoxazole-3-carboxamide]
pEC50: < 4.52

N#C[C@H](C[C@@H]1CCNC1=O)NC(=O)[C@H](CC1CC1)N1CCC2(CCCN2)C1=O (stereo partly drawn) [Compound 471, N-[(1S)-1-cyano-2-[(3S)-2-oxopyrrolidin-3-yl]ethyl]-3-cyclopropyl-2-(6-oxo-1,7-diazaspiro[4.4]nonan-7-yl)propanamide]
pEC50: 4.52 to 5.00

N#C[C@H](C[C@@H]1CCNC1=O)NC(=O)[C@@H]1CS[C@H]2CC[C@H](N)C(=O)N21 [Compound 479, (3R,6S)-6-amino-N-[(1S)-1-cyano-2-[(3S)-2-oxopyrrolidin-3-yl]ethyl]-5-oxo-2,3,6,7,8,8a-hexahydrothiazolo[3,2-a]pyridine-3-carboxamide]
pEC50: 4.52 to 5.00

N#C[C@H](C[C@@H]1CCNC1=O)NC(=O)[C@@H]1CCc2ccc(NCC(=O)Oc3ccccc3)c(=O)n21 [Compound 483, phenyl 2-[[(3S)-3-[[(1S)-1-cyano-2-[(3S)-2-oxopyrrolidin-3-yl]ethyl]carbamoyl]-5-oxo-2,3-dihydro-1H-indolizin-6-yl]amino]acetate]
pEC50: < 4.52

COc1cccc2[nH]c(C(=O)N[C@@H](CC3CC3)C(=O)N[C@@H](C#N)C[C@@H]3CCCNC3=O)cc12 [Compound 491B]
pEC50: 4.52 to 5.00

COc1cccc2[nH]c(C(=O)N[C@H](C(=O)N[C@H](C#N)C[C@@H]3CCNC3=O)C3CC4CC4C3)cc12 (some centres unmarked) [Compound 499]
pEC50: > 5.70

N#C[C@H](C[C@@H]1CCNC1=O)NC(=O)[C@H](CC1CC1)NC(=O)c1cc2c(OCCN3CCOCC3)cccc2[nH]1 [Compound 515, N-[(1S)-2-[[(1S)-1-cyano-2-[(3S)-2-oxopyrrolidin-3-yl]ethyl]amino]-1-(cyclopropylmethyl)-2-oxo-ethyl]-4-(2-morpholinoethoxy)-1H-indole-2-carboxamide]
pEC50: > 5.70

N#C[C@H](C[C@@H]1CCNC1=O)NC(=O)[C@H](CC1CC1)NC(=O)c1nc2c(Cl)cc(Cl)cc2[nH]1 [Compound 525, 4,6-dichloro-N-[(1S)-2-[[(1S)-1-cyano-2-[(3S)-2-oxopyrrolidin-3-yl]ethyl]amino]-1-(cyclopropylmethyl)-2-oxo-ethyl]-1H-benzimidazole-2-carboxamide]
pEC50: > 5.70

N#C[C@H](C[C@@H]1CCNC1=O)NC(=O)[C@H](CC1CC1)NC(=O)c1cc2ccc(Cl)cc2[nH]1 [Compound 529, 6-chloro-N-[(1S)-2-[[(1S)-1-cyano-2-[(3S)-2-oxopyrrolidin-3-yl]ethyl]amino]-1-(cyclopropylmethyl)-2-oxo-ethyl]-1H-indole-2-carboxamide]
pEC50: > 5.70

CCO[C@@H]1C[C@@H](C(=O)N[C@H](C#N)C[C@@H]2CCNC2=O)N(C(=O)c2cc3c(OC)cccc3[nH]2)C1 [Compound 535]
pEC50: < 4.52
